Reference: the NIST ThermoML archive (doi:10.1016/j.fluid.2006.09.025)
± gives the expanded uncertainty stated by the source.

Assay: osmotic coefficient (dimensionless); mn = molality of the nth substance listed, in mol/kg
Details: 298.15 K, Liquid, isopiestic method

CCCC[N+](CC)(CC)CC.[I-] [butyltriethylammonium iodide] + O
Details	osmotic coefficient
m1 = 0.0475	0.9775 ± 0.0011
m1 = 0.0571	0.9735 ± 0.0013
m1 = 0.076	0.9668 ± 0.0017
m1 = 0.0898	0.9582 ± 0.0021
m1 = 0.0991	0.9545 ± 0.0023
m1 = 0.1499	0.94 ± 0.0037
m1 = 0.1571	0.93 ± 0.0037
m1 = 0.1638	0.9298 ± 0.0035
m1 = 0.1729	0.9266 ± 0.0037
m1 = 0.189	0.9199 ± 0.0041
m1 = 0.2281	0.9038 ± 0.0049
m1 = 0.293	0.8831 ± 0.0059
m1 = 0.3288	0.8677 ± 0.0067
m1 = 0.38	0.8544 ± 0.0074
m1 = 0.4288	0.837 ± 0.0085
m1 = 0.435	0.834 ± 0.0085
m1 = 0.4582	0.824 ± 0.0092
m1 = 0.5067	0.795 ± 0.01
m1 = 0.5888	0.77 ± 0.012
m1 = 0.7326	0.708 ± 0.016
m1 = 0.7462	0.695 ± 0.016
m1 = 0.76	0.691 ± 0.016
m1 = 0.855	0.655 ± 0.018
m1 = 0.9926	0.606 ± 0.02
m1 = 1.093	0.569 ± 0.022
m1 = 1.132	0.562 ± 0.022
m1 = 1.178	0.554 ± 0.022
m1 = 1.305	0.523 ± 0.024
m1 = 1.503	0.481 ± 0.026
m1 = 1.645	0.456 ± 0.027
m1 = 1.681	0.45 ± 0.028
m1 = 1.738	0.439 ± 0.028
m1 = 1.782	0.433 ± 0.029
m1 = 1.811	0.428 ± 0.029

CCCCCCC[N+](CC)(CC)CC.[I-] [heptyltriethylammonium iodide] + O
Details	osmotic coefficient
m1 = 0.0575	0.8694 ± 0.0066
m1 = 0.077	0.84 ± 0.0081
m1 = 0.0876	0.829 ± 0.0086
m1 = 0.1022	0.815 ± 0.0093
m1 = 0.1082	0.805 ± 0.0099
m1 = 0.1205	0.787 ± 0.011
m1 = 0.1533	0.757 ± 0.012
m1 = 0.1727	0.742 ± 0.013
m1 = 0.175	0.736 ± 0.013
m1 = 0.1805	0.723 ± 0.015
m1 = 0.2592	0.67 ± 0.017
m1 = 0.2917	0.642 ± 0.018
m1 = 0.3136	0.635 ± 0.018
m1 = 0.3583	0.614 ± 0.019
m1 = 0.4282	0.58 ± 0.021
m1 = 0.4477	0.577 ± 0.021
m1 = 0.4858	0.553 ± 0.022
m1 = 0.5029	0.548 ± 0.023
m1 = 0.5121	0.54 ± 0.023
m1 = 0.5894	0.52 ± 0.024
m1 = 0.6973	0.486 ± 0.026
m1 = 0.787	0.45 ± 0.028
m1 = 0.8401	0.434 ± 0.028
m1 = 0.89	0.427 ± 0.029
m1 = 1.105	0.384 ± 0.031
m1 = 1.341	0.34 ± 0.033
m1 = 1.504	0.325 ± 0.034
m1 = 1.803	0.297 ± 0.035
m1 = 1.921	0.289 ± 0.036
m1 = 2.205	0.263 ± 0.037
m1 = 2.515	0.253 ± 0.037
m1 = 2.79	0.247 ± 0.038
m1 = 2.96	0.24 ± 0.038
m1 = 3	0.242 ± 0.038

CCCCCC[N+](CC)(CC)CC.[I-] [hexyltriethylammonium iodide] + O
Details	osmotic coefficient
m1 = 0.0542	0.9221 ± 0.0039
m1 = 0.0712	0.9085 ± 0.0046
m1 = 0.0797	0.9098 ± 0.0045
m1 = 0.0926	0.8987 ± 0.0051
m1 = 0.0971	0.8963 ± 0.0053
m1 = 0.107	0.8864 ± 0.0057
m1 = 0.1332	0.8718 ± 0.0065
m1 = 0.1502	0.8528 ± 0.0074
m1 = 0.1517	0.8493 ± 0.0076
m1 = 0.153	0.8537 ± 0.0073
m1 = 0.2121	0.819 ± 0.0092
m1 = 0.232	0.808 ± 0.0097
m1 = 0.2494	0.798 ± 0.01
m1 = 0.2836	0.775 ± 0.011
m1 = 0.3308	0.751 ± 0.013
m1 = 0.3473	0.744 ± 0.013
m1 = 0.3651	0.737 ± 0.013
m1 = 0.3804	0.724 ± 0.014
m1 = 0.3878	0.713 ± 0.016
m1 = 0.4518	0.678 ± 0.016
m1 = 0.5224	0.648 ± 0.018
m1 = 0.5588	0.633 ± 0.018
m1 = 0.5839	0.624 ± 0.019
m1 = 0.6237	0.609 ± 0.02
m1 = 0.7289	0.582 ± 0.021
m1 = 0.8228	0.555 ± 0.022
m1 = 0.9203	0.531 ± 0.024
m1 = 1.101	0.487 ± 0.026
m1 = 1.171	0.475 ± 0.026
m1 = 1.275	0.454 ± 0.027
m1 = 1.512	0.421 ± 0.029
m1 = 1.84	0.375 ± 0.031
m1 = 1.94	0.366 ± 0.032
m1 = 2.04	0.356 ± 0.032
m1 = 2.24	0.337 ± 0.033
m1 = 2.344	0.329 ± 0.034

CC[N+](C)(CC)CC.[I-] [methyltriethylammonium iodide] + O
Details	osmotic coefficient
m1 = 0.0478	0.739 ± 0.013
m1 = 0.0576	0.714 ± 0.014
m1 = 0.0766	0.673 ± 0.016
m1 = 0.0902	0.648 ± 0.018
m1 = 0.0995	0.632 ± 0.018
m1 = 0.1505	0.564 ± 0.022
m1 = 0.1558	0.556 ± 0.022
m1 = 0.1631	0.548 ± 0.023
m1 = 0.1721	0.539 ± 0.023
m1 = 0.1879	0.523 ± 0.024
m1 = 0.2254	0.488 ± 0.026
m1 = 0.2898	0.44 ± 0.028
m1 = 0.324	0.421 ± 0.029
m1 = 0.3742	0.391 ± 0.03
m1 = 0.4177	0.371 ± 0.032
m1 = 0.4237	0.368 ± 0.032
m1 = 0.4447	0.36 ± 0.032
m1 = 0.4801	0.347 ± 0.033
m1 = 0.5528	0.321 ± 0.034
m1 = 0.6505	0.294 ± 0.035
m1 = 0.6561	0.295 ± 0.035
m1 = 0.6693	0.291 ± 0.035
m1 = 0.7286	0.28 ± 0.036
m1 = 0.8032	0.265 ± 0.037
m1 = 0.8482	0.259 ± 0.037
m1 = 0.8851	0.255 ± 0.037
m1 = 0.9205	0.249 ± 0.037
m1 = 0.9981	0.241 ± 0.038
m1 = 1.101	0.232 ± 0.038
m1 = 1.2	0.226 ± 0.039
m1 = 1.22	0.224 ± 0.039
m1 = 1.25	0.223 ± 0.039
m1 = 1.29	0.22 ± 0.039
m1 = 1.37	0.219 ± 0.039

CCCCC[N+](CC)(CC)CC.[I-] [pentyltriethylammonium iodide] + O
Details	osmotic coefficient
m1 = 0.0539	0.9283 ± 0.0036
m1 = 0.0703	0.9203 ± 0.004
m1 = 0.0798	0.9092 ± 0.0046
m1 = 0.0922	0.903 ± 0.0049
m1 = 0.0976	0.8923 ± 0.0054
m1 = 0.1065	0.891 ± 0.0055
m1 = 0.132	0.8799 ± 0.006
m1 = 0.1471	0.8712 ± 0.0065
m1 = 0.1482	0.8694 ± 0.0065
m1 = 0.1501	0.8697 ± 0.0066
m1 = 0.2076	0.8364 ± 0.0083
m1 = 0.2284	0.821 ± 0.0091
m1 = 0.2454	0.811 ± 0.0095
m1 = 0.2742	0.802 ± 0.0099
m1 = 0.3148	0.789 ± 0.011
m1 = 0.3295	0.784 ± 0.011
m1 = 0.3456	0.778 ± 0.011
m1 = 0.3579	0.77 ± 0.012
m1 = 0.3614	0.765 ± 0.013
m1 = 0.4108	0.746 ± 0.013
m1 = 0.4718	0.718 ± 0.014
m1 = 0.498	0.711 ± 0.015
m1 = 0.514	0.709 ± 0.015
m1 = 0.5434	0.699 ± 0.015
m1 = 0.6238	0.68 ± 0.016
m1 = 0.6938	0.658 ± 0.017
m1 = 0.7814	0.625 ± 0.019
m1 = 0.9005	0.595 ± 0.02
m1 = 0.9578	0.58 ± 0.021
m1 = 1.015	0.571 ± 0.022
m1 = 1.199	0.531 ± 0.024
m1 = 1.359	0.508 ± 0.025
m1 = 1.465	0.485 ± 0.026
m1 = 1.549	0.468 ± 0.027
m1 = 1.688	0.447 ± 0.028

CC[N+](CC)(CC)CC.[I-] [tetraethylammonium iodide] + O
Details	osmotic coefficient
m1 = 0.0519	0.8954 ± 0.0053
m1 = 0.0633	0.8781 ± 0.0061
m1 = 0.086	0.8544 ± 0.0073
m1 = 0.1019	0.8443 ± 0.0078
m1 = 0.1134	0.834 ± 0.0084
m1 = 0.1748	0.806 ± 0.0098
m1 = 0.1826	0.8 ± 0.01
m1 = 0.1916	0.795 ± 0.01
m1 = 0.2018	0.794 ± 0.01
m1 = 0.2218	0.784 ± 0.011
m1 = 0.2718	0.758 ± 0.012
m1 = 0.3586	0.722 ± 0.014
m1 = 0.3999	0.714 ± 0.014
m1 = 0.4738	0.685 ± 0.016
m1 = 0.5329	0.674 ± 0.017
m1 = 0.5415	0.67 ± 0.017
m1 = 0.5698	0.662 ± 0.017
m1 = 0.6153	0.655 ± 0.017
m1 = 0.7181	0.631 ± 0.018
m1 = 0.8456	0.613 ± 0.02
m1 = 0.8512	0.609 ± 0.02
m1 = 0.8671	0.606 ± 0.02
m1 = 0.9377	0.597 ± 0.02
m1 = 1.032	0.583 ± 0.021
m1 = 1.076	0.578 ± 0.021
m1 = 1.109	0.574 ± 0.021
m1 = 1.151	0.566 ± 0.022
m1 = 1.224	0.558 ± 0.022
m1 = 1.309	0.553 ± 0.022
m1 = 1.373	0.546 ± 0.023
m1 = 1.391	0.543 ± 0.023
m1 = 1.403	0.544 ± 0.023
m1 = 1.429	0.54 ± 0.023
m1 = 1.442	0.537 ± 0.023

CC[N+](CC)(CC)C(C)C.[I-] [triethylisopropylammonium iodide] + O
Details	osmotic coefficient
m1 = 0.0475	0.9777 ± 0.0011
m1 = 0.057	0.9749 ± 0.0013
m1 = 0.0757	0.9713 ± 0.0014
m1 = 0.0889	0.968 ± 0.0016
m1 = 0.0981	0.9643 ± 0.0018
m1 = 0.1471	0.9579 ± 0.0021
m1 = 0.1528	0.9563 ± 0.0022
m1 = 0.1597	0.9537 ± 0.0023
m1 = 0.1682	0.9525 ± 0.0024
m1 = 0.1838	0.9459 ± 0.0027
m1 = 0.2194	0.9398 ± 0.003
m1 = 0.2793	0.9267 ± 0.0037
m1 = 0.3108	0.918 ± 0.0042
m1 = 0.3581	0.9067 ± 0.0049
m1 = 0.408	0.88 ± 0.0094
m1 = 0.4103	0.884 ± 0.0093
m1 = 0.4322	0.8735 ± 0.0066
m1 = 0.4691	0.8589 ± 0.0073
m1 = 0.5492	0.825 ± 0.0091
m1 = 0.6807	0.762 ± 0.014
m1 = 0.6907	0.751 ± 0.013
m1 = 0.7103	0.74 ± 0.014
m1 = 0.8103	0.691 ± 0.016
m1 = 0.9083	0.662 ± 0.017
m1 = 0.9858	0.631 ± 0.019
m1 = 1.081	0.589 ± 0.021
m1 = 1.111	0.587 ± 0.021
m1 = 1.22	0.559 ± 0.022
m1 = 1.326	0.546 ± 0.023
m1 = 1.388	0.541 ± 0.023
m1 = 1.402	0.539 ± 0.023
m1 = 1.428	0.535 ± 0.023
m1 = 1.448	0.533 ± 0.023
m1 = 1.462	0.53 ± 0.024
